Experimental data published in patent publication US20060051291A1, “Synthesis of radiolabeled sugar metal complexes” (priority 2004, published 2006).

Format: physicochemical
Source text: Minor species are also detected by UV/visible spectroscopy in the HPLC of the complex and become more significant over time. The ^13C{^1H} NMR spectrum (d6-DMSO) of the complex was fully assigned for the α-anomer, and partially assigned for the β-anomer (as reflected above in TABLE 1).

stability in solution: become visibly brown
Substance: Tricarbonyl (N-(2′-Hydroxybenzyl)-2-amino-2-deoxy-D-glucose) rhenium(I) [[(L^2)Re(CO)3]]
